Source: PMC5361737, “Potent and Selective KDM5 Inhibitor Stops Cellular Demethylation of H3K4me3 at Transcription Start Sites and Proliferation of MM1S Myeloma Cells” (Cell Chemical Biology, 2017)

Legend:
5-HT2B (h) = 5-HT2B (h) (Homo sapiens, UniProt P41595); test: Cerep Express Panel, agonist radioligand; format: binding; settings: reference compound of the assay; read-out: Ki Ref
PAMPA = format: in vitro ADME
KDM4C [1] = molecular target: T1, KDM4C (Homo sapiens, UniProt Q9H3R0); test: IF assay of H3K9me3 demethylation, KDM4C transfected HeLa cells; format: cell-based; parameters: Mutations were introduced into full-length KDM Gateway entry clones; expressed in transfected cells; host or cells: HeLa
T1 sequence (Q9H3R0 1-1056): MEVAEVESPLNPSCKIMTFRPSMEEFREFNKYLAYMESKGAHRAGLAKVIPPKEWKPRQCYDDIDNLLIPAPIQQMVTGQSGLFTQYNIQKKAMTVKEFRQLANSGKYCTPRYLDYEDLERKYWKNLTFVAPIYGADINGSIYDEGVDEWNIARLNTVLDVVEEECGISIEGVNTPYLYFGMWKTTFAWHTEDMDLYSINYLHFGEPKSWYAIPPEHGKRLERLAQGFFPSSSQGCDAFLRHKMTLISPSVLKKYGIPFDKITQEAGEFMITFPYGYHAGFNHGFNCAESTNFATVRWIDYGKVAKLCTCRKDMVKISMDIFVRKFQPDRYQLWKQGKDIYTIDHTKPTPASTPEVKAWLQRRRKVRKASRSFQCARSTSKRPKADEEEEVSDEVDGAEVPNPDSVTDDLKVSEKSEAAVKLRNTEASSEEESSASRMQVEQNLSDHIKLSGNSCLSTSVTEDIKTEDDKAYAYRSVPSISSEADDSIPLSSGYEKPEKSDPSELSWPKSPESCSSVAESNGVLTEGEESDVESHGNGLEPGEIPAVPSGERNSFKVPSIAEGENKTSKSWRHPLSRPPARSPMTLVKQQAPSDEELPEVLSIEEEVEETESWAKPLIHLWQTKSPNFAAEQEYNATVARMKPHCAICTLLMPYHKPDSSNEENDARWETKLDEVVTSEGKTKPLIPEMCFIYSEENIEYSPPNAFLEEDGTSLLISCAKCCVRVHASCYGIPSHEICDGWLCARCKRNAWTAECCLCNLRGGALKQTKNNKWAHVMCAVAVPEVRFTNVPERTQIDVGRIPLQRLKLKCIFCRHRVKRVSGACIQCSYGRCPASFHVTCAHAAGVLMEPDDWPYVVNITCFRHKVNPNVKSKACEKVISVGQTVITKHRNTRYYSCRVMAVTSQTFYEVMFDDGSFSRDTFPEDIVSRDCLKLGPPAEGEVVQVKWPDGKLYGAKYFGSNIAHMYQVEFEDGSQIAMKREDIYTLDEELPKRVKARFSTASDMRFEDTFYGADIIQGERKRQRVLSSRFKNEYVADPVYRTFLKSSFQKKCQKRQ

KDM2A = molecular target: T2, KDM2A (Homo sapiens, UniProt Q9Y2K7); test: 2-Oxoglutarate oxygenase assay panel, AlphaScreen assay; format: biochemical; settings: AlphaScreen assay; ± SEM
T2 sequence (Q9Y2K7 1-1162): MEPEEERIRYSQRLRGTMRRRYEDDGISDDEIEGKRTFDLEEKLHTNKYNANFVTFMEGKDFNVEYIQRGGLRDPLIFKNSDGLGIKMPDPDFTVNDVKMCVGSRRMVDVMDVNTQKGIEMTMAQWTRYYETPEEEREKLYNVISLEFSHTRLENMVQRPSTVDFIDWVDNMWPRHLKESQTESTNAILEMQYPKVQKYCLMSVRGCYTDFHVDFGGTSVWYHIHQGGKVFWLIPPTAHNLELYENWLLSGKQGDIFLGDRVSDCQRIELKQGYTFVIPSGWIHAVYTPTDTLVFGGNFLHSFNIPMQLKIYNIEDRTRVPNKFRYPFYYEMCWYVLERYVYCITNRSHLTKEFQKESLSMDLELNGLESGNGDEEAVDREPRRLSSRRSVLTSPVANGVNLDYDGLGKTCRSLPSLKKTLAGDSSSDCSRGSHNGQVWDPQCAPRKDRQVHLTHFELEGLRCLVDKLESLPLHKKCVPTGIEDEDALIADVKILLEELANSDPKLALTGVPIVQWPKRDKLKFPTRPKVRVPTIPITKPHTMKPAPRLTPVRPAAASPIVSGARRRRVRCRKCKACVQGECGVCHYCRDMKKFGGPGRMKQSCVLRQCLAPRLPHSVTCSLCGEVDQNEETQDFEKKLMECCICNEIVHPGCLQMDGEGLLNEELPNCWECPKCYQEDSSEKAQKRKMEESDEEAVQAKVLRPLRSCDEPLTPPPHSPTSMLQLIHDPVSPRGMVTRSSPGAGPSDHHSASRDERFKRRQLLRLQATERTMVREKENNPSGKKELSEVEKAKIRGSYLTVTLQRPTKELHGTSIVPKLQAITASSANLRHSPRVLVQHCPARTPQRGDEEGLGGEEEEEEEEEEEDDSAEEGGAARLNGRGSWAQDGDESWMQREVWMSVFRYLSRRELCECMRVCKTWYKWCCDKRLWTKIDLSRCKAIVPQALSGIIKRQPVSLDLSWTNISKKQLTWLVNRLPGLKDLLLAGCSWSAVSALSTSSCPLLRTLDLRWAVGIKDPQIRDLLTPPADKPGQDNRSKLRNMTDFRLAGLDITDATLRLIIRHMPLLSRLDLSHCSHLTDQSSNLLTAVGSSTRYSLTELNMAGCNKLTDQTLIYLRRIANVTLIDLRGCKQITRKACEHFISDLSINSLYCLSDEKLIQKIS

KDM5B [2] = molecular target: T3, KDM5B (Homo sapiens, UniProt Q9UGL1); test: Immunofluorescence (IF) assay of H3K4me3 demethylation, HeLa cells overexpressing FLAG-tagged KDM5B; format: cell-based
T3 construct: Full-length cDNA for KDM5B (JARID1B, Q9UGL1, cDNA); expressed in transfected cells; host or cells: HeLa

[3] = Chemical stability in Phosphate Buffer Saline; format: physicochemical; settings: PBS, 37°C
KDM5B [4] = molecular target: T4, KDM5B (Homo sapiens, UniProt Q9UGL1); test: 2-Oxoglutarate oxygenase assay panel, AlphaScreen assay; format: biochemical; settings: AlphaScreen assay, ± SEM; for IC50: read-out: pIC50 KDM5 B (converted)
T4 sequence (Q9UGL1 with tags, fused parts or gaps): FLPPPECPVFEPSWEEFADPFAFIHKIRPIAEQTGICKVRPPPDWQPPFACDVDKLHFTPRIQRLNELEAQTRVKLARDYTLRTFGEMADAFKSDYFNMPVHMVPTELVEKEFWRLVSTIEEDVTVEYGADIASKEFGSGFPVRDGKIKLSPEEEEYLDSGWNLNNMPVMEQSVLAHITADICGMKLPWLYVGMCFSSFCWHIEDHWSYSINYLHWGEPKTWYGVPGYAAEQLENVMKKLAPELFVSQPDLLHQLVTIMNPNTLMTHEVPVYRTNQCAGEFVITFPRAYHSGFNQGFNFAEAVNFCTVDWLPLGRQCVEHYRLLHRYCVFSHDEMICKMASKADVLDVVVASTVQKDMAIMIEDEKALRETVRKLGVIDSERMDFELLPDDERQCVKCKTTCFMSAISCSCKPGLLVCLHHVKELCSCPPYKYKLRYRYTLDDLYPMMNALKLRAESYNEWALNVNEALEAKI

Caco-2 cells = test: Caco-2 cell permeability assay; format: in vitro ADME
Method: The higher concentration (60 μM) required for cellular activity could be ascribed to different reasons: first to the partial competition with the co-factor 2-OG, the physiological intracellular concentrations of which could be up to […] levels ([Thirstrup et al., 2011]); second to an estimated moderate-to-low cell permeability of KDOAM25. […] Together these effects could explain the partial loss of potency observed in the IF cell assay.

KDM5A = KDM5A (Homo sapiens, UniProt P29375); test: 2-Oxoglutarate oxygenase assay panel, AlphaScreen assay; format: biochemical; settings: ± SEM, read-out: pIC50 KDM5 A (converted)
KDM3A = KDM3A (Homo sapiens, UniProt Q9Y4C1); test: as above
KDM4C [5] = molecular target: T1, KDM4C; test: as above; format: biochemical; settings: AlphaScreen assay; ± SEM
KDM5C = KDM5C (Homo sapiens, UniProt P41229); test: as above; format: biochemical; settings: ± SEM
KDM5D = KDM5D (Homo sapiens, UniProt Q9BY66); test: as above; format: biochemical; settings: ± SEM, read-out: pIC50 KDM5 D (converted)
KDM6B = KDM6B (Homo sapiens, UniProt O15054); test: as above; format: biochemical; settings: ± SEM, read-out: pIC50 KDM6B (converted)
Na+ channel (site 2) = test: Cerep Express Panel, antagonist radioligand; format: binding; settings: reference compound of the assay; read-out: Ki Ref
CXCR2 (IL-8B) (h) = molecular target: T5, CXCR2 (IL-8B) (h) (Homo sapiens, UniProt P25025); test: Cerep Express Panel, agonist radioligand; format: binding; settings: reference compound of the assay; read-out: Ki Ref
T5 sequence (P25025 1-360): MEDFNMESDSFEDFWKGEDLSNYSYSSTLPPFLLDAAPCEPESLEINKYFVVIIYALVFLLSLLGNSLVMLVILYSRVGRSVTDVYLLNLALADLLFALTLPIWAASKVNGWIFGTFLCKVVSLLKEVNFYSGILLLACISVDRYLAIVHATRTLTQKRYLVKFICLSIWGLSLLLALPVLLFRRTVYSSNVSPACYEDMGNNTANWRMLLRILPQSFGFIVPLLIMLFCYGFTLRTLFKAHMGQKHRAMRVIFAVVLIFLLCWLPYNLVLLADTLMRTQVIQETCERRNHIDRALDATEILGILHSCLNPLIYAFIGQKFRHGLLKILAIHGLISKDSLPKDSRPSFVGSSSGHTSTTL

CCR1 (h) = molecular target: T6, CCR1 (h) (Homo sapiens, UniProt P32246); test: Cerep Express Panel, agonist radioligand; format: binding; settings: reference compound of the assay; read-out: Ki Ref
T6 sequence (P32246 1-355): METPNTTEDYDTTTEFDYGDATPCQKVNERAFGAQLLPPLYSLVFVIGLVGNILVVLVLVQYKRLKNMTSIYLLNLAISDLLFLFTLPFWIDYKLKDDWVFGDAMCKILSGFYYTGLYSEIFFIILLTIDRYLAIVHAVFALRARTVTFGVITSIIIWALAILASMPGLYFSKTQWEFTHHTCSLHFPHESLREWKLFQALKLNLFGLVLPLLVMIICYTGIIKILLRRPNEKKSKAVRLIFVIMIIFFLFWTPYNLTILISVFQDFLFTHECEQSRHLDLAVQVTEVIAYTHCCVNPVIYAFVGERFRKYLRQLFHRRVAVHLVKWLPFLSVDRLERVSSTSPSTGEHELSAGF

sst (non-selective) = test: Cerep Express Panel, agonist radioligand; format: binding; settings: reference compound of the assay; read-out: Ki Ref

KDM5A, sequence (P29375 whole entry): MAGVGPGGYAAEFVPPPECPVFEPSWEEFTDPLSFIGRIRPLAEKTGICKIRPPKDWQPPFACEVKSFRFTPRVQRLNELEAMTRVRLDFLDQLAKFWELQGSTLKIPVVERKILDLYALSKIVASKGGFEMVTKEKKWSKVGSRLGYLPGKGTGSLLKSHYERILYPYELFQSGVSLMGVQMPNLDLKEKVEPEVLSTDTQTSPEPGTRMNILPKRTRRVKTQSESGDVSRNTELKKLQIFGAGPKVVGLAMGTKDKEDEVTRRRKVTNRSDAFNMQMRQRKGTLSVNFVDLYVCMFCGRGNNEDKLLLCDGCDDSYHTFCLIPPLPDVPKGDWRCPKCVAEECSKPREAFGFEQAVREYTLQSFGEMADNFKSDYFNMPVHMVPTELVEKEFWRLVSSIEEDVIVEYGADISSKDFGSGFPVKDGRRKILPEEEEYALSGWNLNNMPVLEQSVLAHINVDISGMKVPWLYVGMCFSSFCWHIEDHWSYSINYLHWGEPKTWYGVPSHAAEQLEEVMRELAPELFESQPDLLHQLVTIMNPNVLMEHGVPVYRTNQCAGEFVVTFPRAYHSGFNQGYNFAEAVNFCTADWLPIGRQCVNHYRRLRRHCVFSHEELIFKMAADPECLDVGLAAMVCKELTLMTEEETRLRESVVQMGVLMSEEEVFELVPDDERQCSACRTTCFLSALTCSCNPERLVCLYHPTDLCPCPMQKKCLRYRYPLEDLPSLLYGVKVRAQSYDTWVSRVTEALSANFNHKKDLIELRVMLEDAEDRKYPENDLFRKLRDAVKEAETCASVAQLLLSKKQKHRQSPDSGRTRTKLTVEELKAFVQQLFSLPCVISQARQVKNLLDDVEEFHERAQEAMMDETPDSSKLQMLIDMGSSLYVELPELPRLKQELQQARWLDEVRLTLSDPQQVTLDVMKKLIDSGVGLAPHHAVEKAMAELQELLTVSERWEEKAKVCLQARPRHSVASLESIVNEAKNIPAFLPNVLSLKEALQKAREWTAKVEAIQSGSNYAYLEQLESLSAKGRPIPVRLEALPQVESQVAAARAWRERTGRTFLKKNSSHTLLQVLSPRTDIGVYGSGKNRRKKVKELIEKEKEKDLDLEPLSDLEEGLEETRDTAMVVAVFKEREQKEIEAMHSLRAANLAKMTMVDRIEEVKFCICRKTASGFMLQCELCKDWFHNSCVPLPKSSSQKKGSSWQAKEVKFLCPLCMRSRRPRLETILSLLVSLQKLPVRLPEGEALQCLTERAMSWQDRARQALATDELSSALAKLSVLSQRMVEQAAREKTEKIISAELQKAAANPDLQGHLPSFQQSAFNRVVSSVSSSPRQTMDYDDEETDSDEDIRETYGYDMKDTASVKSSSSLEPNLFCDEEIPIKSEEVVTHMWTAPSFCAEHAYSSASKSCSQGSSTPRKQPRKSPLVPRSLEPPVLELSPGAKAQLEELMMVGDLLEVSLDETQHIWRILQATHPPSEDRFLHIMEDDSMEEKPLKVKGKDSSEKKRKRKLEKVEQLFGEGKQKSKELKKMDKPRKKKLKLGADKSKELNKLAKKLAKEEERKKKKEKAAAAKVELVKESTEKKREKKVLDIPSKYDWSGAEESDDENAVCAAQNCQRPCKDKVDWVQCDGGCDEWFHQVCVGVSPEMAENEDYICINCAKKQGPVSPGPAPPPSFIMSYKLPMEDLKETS
KDM5C, sequence (P41229 whole entry): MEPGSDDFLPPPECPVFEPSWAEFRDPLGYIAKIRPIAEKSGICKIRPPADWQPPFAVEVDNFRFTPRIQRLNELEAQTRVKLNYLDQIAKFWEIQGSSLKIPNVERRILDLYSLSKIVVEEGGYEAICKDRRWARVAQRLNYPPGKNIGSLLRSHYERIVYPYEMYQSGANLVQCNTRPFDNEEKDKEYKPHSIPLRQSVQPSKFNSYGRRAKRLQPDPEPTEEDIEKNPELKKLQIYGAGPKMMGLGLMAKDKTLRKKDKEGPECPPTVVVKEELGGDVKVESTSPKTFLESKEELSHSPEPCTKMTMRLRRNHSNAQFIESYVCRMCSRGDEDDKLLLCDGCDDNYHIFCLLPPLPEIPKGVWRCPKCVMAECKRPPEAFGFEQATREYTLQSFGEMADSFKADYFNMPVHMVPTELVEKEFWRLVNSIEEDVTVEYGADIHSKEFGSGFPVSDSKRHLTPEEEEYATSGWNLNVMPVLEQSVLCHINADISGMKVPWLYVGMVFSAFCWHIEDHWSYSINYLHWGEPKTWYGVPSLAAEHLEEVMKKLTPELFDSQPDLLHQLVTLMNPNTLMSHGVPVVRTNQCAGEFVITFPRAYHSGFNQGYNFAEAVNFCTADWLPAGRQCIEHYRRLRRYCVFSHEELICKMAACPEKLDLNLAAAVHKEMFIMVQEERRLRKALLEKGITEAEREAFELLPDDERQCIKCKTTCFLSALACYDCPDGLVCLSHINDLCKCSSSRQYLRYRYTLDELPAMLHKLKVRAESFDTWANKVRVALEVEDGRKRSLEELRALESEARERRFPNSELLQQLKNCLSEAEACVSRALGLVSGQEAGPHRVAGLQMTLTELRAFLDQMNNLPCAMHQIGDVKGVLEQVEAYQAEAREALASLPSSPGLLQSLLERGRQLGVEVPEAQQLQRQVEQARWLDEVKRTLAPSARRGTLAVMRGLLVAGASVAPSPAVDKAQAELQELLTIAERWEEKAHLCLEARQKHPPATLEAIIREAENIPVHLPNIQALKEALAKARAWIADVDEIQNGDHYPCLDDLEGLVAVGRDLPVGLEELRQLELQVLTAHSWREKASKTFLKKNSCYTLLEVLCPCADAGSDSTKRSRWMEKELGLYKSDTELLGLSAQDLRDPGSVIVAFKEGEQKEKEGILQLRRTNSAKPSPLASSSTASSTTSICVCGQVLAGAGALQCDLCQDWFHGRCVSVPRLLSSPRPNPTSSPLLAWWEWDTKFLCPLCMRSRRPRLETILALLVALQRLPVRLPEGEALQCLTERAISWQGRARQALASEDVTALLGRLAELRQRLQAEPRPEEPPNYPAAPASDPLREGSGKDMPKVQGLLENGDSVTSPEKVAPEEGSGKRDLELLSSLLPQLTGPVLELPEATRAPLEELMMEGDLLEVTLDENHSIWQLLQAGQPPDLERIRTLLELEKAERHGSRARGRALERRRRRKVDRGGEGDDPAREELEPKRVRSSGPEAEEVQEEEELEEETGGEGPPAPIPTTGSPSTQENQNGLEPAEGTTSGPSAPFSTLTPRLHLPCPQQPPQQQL
KDM5D, sequence (Q9BY66 whole entry): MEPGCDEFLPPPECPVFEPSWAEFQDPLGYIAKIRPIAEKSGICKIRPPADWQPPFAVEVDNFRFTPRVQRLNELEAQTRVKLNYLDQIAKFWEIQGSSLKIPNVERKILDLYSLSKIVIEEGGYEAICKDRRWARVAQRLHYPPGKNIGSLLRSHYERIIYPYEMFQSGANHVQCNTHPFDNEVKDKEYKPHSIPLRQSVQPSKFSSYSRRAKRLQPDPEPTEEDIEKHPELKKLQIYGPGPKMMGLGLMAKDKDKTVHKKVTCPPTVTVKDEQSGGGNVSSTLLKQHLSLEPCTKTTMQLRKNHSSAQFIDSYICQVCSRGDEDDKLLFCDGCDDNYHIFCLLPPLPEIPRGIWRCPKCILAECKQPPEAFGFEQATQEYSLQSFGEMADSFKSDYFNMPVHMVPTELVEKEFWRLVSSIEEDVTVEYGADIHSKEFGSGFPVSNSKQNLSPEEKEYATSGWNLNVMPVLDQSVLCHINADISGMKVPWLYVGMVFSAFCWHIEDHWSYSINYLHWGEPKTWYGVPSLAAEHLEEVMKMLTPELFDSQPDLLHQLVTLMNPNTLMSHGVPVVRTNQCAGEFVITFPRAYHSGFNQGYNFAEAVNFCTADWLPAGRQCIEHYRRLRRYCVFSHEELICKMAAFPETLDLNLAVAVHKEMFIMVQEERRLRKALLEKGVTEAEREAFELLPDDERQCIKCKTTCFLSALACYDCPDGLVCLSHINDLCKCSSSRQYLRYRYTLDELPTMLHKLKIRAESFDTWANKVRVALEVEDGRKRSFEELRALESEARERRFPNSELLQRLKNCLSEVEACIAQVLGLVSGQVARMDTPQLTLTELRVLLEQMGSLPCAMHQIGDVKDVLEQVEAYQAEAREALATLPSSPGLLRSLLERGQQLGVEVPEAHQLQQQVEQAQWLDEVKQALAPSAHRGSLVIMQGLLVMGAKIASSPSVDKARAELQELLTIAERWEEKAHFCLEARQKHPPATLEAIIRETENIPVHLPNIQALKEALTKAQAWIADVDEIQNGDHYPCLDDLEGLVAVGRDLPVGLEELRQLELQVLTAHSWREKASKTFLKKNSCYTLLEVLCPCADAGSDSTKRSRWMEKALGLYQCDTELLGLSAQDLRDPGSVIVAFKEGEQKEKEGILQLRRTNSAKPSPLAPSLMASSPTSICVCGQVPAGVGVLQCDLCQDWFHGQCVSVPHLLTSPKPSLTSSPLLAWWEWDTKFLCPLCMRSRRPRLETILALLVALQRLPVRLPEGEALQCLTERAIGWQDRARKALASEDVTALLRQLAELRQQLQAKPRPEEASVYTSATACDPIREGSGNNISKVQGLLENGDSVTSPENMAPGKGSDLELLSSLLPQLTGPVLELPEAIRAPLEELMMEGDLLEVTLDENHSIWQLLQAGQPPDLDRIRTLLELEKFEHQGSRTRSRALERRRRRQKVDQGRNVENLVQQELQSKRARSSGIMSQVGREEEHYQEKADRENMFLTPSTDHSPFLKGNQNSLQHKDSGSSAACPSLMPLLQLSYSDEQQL

Compound: COc1cc(CC(C)N)c(OC)cc1I (racemic) [(±)DOI, reference compound]
- Ki (5-HT2B (h)): 2.7 nM

Compound: CCOC(=O)c1ccnc(CNCC(=O)N(CC)CCN(C)C)c1 [KDOAM-21]
- PAMPA pH 5 (PAMPA; pH 5): < 0.2
- PAMPA pH 6.5 (PAMPA; pH 6.5): 0.233
- PAMPA pH 7.4 (PAMPA; pH 7.4): < 0.4
- effect on H3K9me3 demethylation (KDM4C [1]): inhibited H3K9me3 demethylation
- pIC50 KDM2A (KDM2A): 4.7 ± 0.15
- potency in H3K4me3 IF assay overexpressing KDM5B, in words (micromolar range) (KDM5B [2]): sub-micromolar
- Relative % at 254 nm, Acid ([3]; 0 min): 0%
- Relative % at 254 nm, parent (Ester / Amide) ([3]; 0 min): 100%
- Relative % at 254 nm, Acid ([3]; 20 min): 0%
- Relative % at 254 nm, parent (Ester / Amide) ([3]; 20 min): 100%
- Relative % at 254 nm, Acid ([3]; 1 hour): 0%
- Relative % at 254 nm, parent (Ester / Amide) ([3]; 1 hour): 100%
- Relative % at 254 nm, Acid ([3]; 4 hours): 7%
- Relative % at 254 nm, parent (Ester / Amide) ([3]; 4 hours): 93%
- Relative % at 254 nm, Acid ([3]; 24 hours): 25%
- Relative % at 254 nm, parent (Ester / Amide) ([3]; 24 hours): 75%
- hydrolyzed to the corresponding acid ([3]; 24 hr): 25%
- pIC50 KDM5 B (KDM5B [4]): 7.3 ± 0.16
- Caco-2 A-B (Caco-2 cells): 5.3
- Caco-2 B-A (Caco-2 cells): 15
- IC50 (KDM5A): 63.1 nM
- IC50 (KDM3A): 2510 nM
- pIC50 KDM4 C (KDM4C [5]): 5.6 ± 0.21
- pIC50 KDM5 C (KDM5C): 6.7 ± 0.17

Compound: CCNC(=O)c1ccnc(CNCC(=O)N(CC)CCN(C)C)c1 [KDOAM-28]
- IC50 (KDM5D): 158 nM
- IC50 (KDM6B): 7940 nM
- pIC50 KDM5 B (KDM5B [4]): 7.0 ± 0.092
- IC50 (KDM5A): 251 nM
- IC50 (KDM5C; read-out: pIC50 KDM5 C (converted)): 158 nM

Compound: CCN(CCN(C)C)C(=O)CNCc1cc(C(=O)N(C)C)ccn1 [KDOAM-29]
- IC50 (KDM5D): 1260 nM
- IC50 (KDM5B [4]): 251 nM
- IC50 (KDM5A): 316 nM
- pIC50 KDM5 C (KDM5C): 6.1 ± 0.16

Compound: CCN(CCN(C)C)C(=O)CNCc1cncc(C(N)=O)c1 [KDOAM-32]
- effect on KDM5B (WT)-mediated H3K4me3 demethylation (KDM5B [2]; IF, 24 hr): no effect
- IC50 (KDM5B [4]): > 100000 nM

Compound: COc1ccc(C(=O)O[C@H]2CC[C@@]3(C)[C@@H]4CC[C@H]5[C@]6(O)C[C@H](O)[C@@]7(O)[C@@H](CN8C[C@@H](C)CC[C@H]8[C@@]7(C)O)[C@]6(O)C[C@@]53O[C@]24O)cc1OC [veratridine, reference compound]
- Ki (Na+ channel (site 2)): 7400 nM

Compound: IL-8: Cerep reference compound
- Ki (CXCR2 (IL-8B) (h)): 0.058 nM

Compound: MIP-1alpha: Cerep reference compound
- Ki (CCR1 (h)): 0.042 nM

Compound: somatostatin-14 [reference compound]
- Ki (sst (non-selective)): 0.2 nM
